# Test results taken from patent US20260070887A1 (Shenzhen Zhongge Biological Technology Co., Ltd., priority 2022, published 2026).
# Like-named read-outs stand apart in the source and are kept apart here.
# Experiments:
# HCC1954 cells = test: HCC1954 cell proliferation (Cell Titer-Glo, 6 days); format: cell-based; details: KIF18A-sensitive tumor cells
# Experimental: (§1) The inhibitory effect on the KIF18A target by the compounds of the present disclosure was evaluated by testing the inhibitory effect on proliferation of HCC1954 and HCC1395 cells by the compounds of the present disclosure.
# (§2) HCC1954 (ATCC, CRL-2388) and HCC1395 (ATCC, CRL-2324) cells were cultured separately in RPMI-1640 complete medium (Gibco, A1049101) containing 20% fetal bovine serum (Gibco, 10099141C), 100 U penicillin, and 100 μg/mL streptomycin (Gibco, 15140-122). The Promega kit Cell Titer-Glo (Promega: G7572) was used in this method for test. • 1. HCC1954 (KIF18A-sensitive tumor cells) and HCC1395 (KIF18A-insensitive tumor cells) were cultured separately in T75 cell culture flasks (Corning, 430641), and the medium was placed in a 37° C., 5% CO2 incubator. • 2. When the cell density reached 70% to 80% (about 2 to 3 times per week), cells are passaged with trypsin (0.25% EDTA). • 3. The cell culture flask was taken out and the cells were separated by adding 2 mL of trypsin (0.25% EDTA source) for 5 minutes. • 4. Digestion was stopped by adding 8 mL of RPM1-1640 medium and the cell suspension was transferred to a centrifuge tube and centrifuged at 1000 rpm for 5 minutes. • 5. The cells were resuspended with 5 mL of RPMI-1640 medium. Cell density was adjusted to 5×10^3/mL (HCC1954), and 2.5×10^4/mL (HCC1395), respectively. • 6. 40 μL of cell solution was added to the 384-well plate (Corning, 3765). • 7. The 384-well plate was centrifuged at 1000 rpm for 1 minute. • 8. The cells were cultured overnight in a 37° C., 5% CO2 incubator. • 9. The next day, 40 nL of compound solution was added to the 384-well plate using Echo650. The plate was then placed in a 37° C., 5% CO2 incubator for 6 days. • 10. After 6 days, 20 μL of Cell-Titer-Glo (Promega, G7572) reagent was added per well. • 11. Luminescence values were measured using the EnVision Xcite Multilabel Reader (PerkinElmer, 2105-0020).
# (§3) The percentage of inhibition of cell proliferation by the test compound at each concentration was calculated by comparing with the values of the control group (0.1% DMSO). The IC50 values of the compounds were obtained by concentration-inhibition rate nonlinear regression analysis of the test compounds using GraphPad Prism 9.
# KIF18A = KIF18A (Homo sapiens (Human), UniProt Q8NI77); test: KIF18A ATPase activity under tubulin stimulation (ADP-Glo assay); format: biochemical; details: KIF18A 30 nM, ATP 150 μM, pig microtubules
# HCC1395 cells = test: HCC1395 cell proliferation (Cell Titer-Glo, 6 days); format: cell-based; details: KIF18A-insensitive tumor cells
# Experimental: as §1, §2, §3
# OVCAR-3 cells = test: OVCAR-3 cell proliferation (Cell Titer-Glo, 10 days); format: cell-based, human
# Procedure, shortened: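 IC50 was fitted by nonlinear regression of percent inhibition versus the 0.1% DMSO control. Luminescence was read with Cell Titer-Glo after 10 days of co-culture of logarithmic-phase cells (400/well) with compound at 0.12 nM–10 μM final, in medium with 20% fetal bovine serum and 0.01 mg/mL insulin.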
# HT-29 cells = test: HT-29 cell proliferation (Cell Titer-Glo, 6 days); format: cell-based; details: Homo sapiens, HT-29, 144 h
# Experimental: The inhibitory effect on the KIF18A target by the compounds of the present disclosure was evaluated by testing the inhibitory effect on proliferation of HT-29 cells by the compounds of the present disclosure.
# HT-29 (ATCC, HTB-38) cells were cultured in McCoy's 5a complete medium (Gibco, 12330-031) containing 10% fetal bovine serum (Gibco, 10099-141C), 100 U penicillin and […] streptomycin (Gibco, 15140-122). The Promega kit Cell Titer-Glo (Promega: G7572) was used in this method for test. • 1. HT-29 cells were cultured in T75 cell flasks (Corning, 430641) and the medium was placed in a 37° C., 5% CO2 incubator. Cells were passaged when reaching a cell density of 70%-80%, approximately twice per week. • 2. To perform the experiment, the test compounds were dissolved in DMSO to prepare a 10 mM stock solution, and the test compounds were added to the 384-well cell test plate (Corning, 3765) at the predetermined concentration using ECHO. • 3. The cell culture flask was taken out, the medium was removed, and the cells were rinsed with PBS. Then 2 mL of trypsin (with 0.25% EDTA) was added, and the flask was placed in the incubator for digestion for 4 minutes. • 4. Digestion was stopped by adding 4 mL of complete medium and the cell suspension was transferred to a centrifuge tube and centrifuged at 1000 rpm for 4 minutes. • 5. The cells were resuspended in 6 mL of complete medium, followed by cell counting. The cell density was adjusted to 4,170 cells/mL, and the cells were added to a 384-well plate at 60 μL/well. • 6. The 384-well plate was centrifuged at 500 rpm for 1 minute, and then placed in a 37° C., 5% CO2 incubator for 6 days of cultivation. • 7. Six days later, the cell culture plate was equilibrated for 10 minutes at room temperature, 25 μL of Cell Titer-Glo was added to each well, and the mixture was shaken and mixed well and let stand for 5 minutes. The luminescence values for samples in various wells were read using a microplate reader in Luminescence mode.
# as §3, with “(0.3%” for “(0.1%”
# HCT116 cells = test: HCT116 cell anti-proliferation assay; format: cell-based; details: Homo sapiens, HCT-116, 144 h, 6 days, Cell Titer-Glo
# Experimental: HCT116 (ATCC, CCL-247) cells were cultured in McCoy's 5a complete medium (Gibco, 12330-031) containing 10% fetal bovine serum (Gibco, 10099-141C), 100 U penicillin and 100 μg/mL streptomycin (Gibco, 15140-122). The Promega kit Cell Titer-Glo (Promega: G7572) was used in this method for test.
# (§4) HCT116 cells were cultured in T75 cell flasks (Corning, 430641) and the cells were placed in a 37° C., 5% CO2 incubator. Cells were passaged when reaching a cell density of 70%-80%, approximately twice per week. To perform the experiment, the test compounds were dissolved in DMSO to prepare a 10 mM stock solution, and the test compounds were added to the 384-well cell test plate (Corning, 3765) at the predetermined concentration (19.5 nM-[…]) using ECHO. HCT1169 cells were digested and 150 cells (60 μL medium) were seeded per well in the test plate. The 384-well plate was then centrifuged at 500 rpm for 1 minute, and then placed in a 37° C., 5% CO2 incubator for 6 days of cultivation. Six days later, the cell culture plate was equilibrated for 10 minutes at room temperature, 25 μL of Cell Titer-Glo was added to each well, and the mixture was shaken and mixed well and let stand for 5 minutes. The luminescence values for samples in various wells were read using a microplate reader in Luminescence mode.
# as §3, with “(0.2%” for “(0.1%”
# A2780 cells = test: A2780 cell anti-proliferation assay; format: cell-based; details: Homo sapiens, A2780, 144 h, 6 days, Cell Titer-Glo
# Experimental: A2780 (ECACC) cells were cultured in RPMI-1640 complete medium (Gibco, A1049101) containing 10% fetal bovine serum (Gibco, 10099-141C), 100 U penicillin and 100 μg/mL streptomycin (Gibco, 15140-122). The Promega kit Cell Titer-Glo (Promega: G7572) was used in this method for test.
# as §4, with “A2780” for “HCT116”, “once every five days.” for “approximately twice per week.”, “A2780” for “HCT1169”, “4000” for “150”
# as §3, with “inhibition of A2780 cell proliferation” for “inhibition of cell proliferation”, “control group (0.2% DMSO). The” for “control group (0.1% DMSO). The”
# KIF18A, sequence (Q8NI77 whole entry): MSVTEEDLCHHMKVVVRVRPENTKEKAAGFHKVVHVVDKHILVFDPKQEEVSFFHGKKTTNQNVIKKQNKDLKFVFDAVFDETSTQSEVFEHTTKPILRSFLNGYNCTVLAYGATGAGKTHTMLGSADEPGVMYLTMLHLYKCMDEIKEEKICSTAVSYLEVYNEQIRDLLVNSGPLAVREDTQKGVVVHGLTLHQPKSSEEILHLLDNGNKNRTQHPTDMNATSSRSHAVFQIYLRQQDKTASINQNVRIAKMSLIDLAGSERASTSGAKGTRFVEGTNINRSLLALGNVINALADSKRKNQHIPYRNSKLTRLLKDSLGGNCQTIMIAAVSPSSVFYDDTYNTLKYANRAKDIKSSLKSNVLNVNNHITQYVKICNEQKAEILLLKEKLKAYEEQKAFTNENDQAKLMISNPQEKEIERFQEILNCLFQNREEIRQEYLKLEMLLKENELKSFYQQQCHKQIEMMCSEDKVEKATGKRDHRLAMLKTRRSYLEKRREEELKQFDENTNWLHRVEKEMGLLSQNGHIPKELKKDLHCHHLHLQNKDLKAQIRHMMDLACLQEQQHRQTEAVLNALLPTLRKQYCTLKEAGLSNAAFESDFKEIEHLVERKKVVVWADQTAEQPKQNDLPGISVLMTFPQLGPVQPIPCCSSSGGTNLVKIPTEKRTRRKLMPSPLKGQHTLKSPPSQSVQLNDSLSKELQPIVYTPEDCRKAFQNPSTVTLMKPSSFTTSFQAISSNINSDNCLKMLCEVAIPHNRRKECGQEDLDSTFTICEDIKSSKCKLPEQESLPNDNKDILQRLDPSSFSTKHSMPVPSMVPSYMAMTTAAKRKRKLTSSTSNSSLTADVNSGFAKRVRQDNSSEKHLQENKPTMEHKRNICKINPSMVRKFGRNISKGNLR
# KIF18A, sequence (P02550 whole entry partner): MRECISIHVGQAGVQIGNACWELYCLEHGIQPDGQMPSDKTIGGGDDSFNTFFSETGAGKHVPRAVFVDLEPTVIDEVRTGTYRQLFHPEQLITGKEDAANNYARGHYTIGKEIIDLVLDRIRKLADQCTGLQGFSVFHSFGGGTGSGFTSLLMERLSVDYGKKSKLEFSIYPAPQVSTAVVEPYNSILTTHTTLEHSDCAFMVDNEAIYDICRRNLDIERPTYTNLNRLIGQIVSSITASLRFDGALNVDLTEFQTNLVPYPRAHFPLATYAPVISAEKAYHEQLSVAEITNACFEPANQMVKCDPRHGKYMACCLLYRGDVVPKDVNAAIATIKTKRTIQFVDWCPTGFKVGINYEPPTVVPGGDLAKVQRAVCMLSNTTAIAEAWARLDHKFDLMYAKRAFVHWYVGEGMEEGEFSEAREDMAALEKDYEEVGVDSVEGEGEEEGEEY
# KIF18A, sequence (P02554 whole entry partner): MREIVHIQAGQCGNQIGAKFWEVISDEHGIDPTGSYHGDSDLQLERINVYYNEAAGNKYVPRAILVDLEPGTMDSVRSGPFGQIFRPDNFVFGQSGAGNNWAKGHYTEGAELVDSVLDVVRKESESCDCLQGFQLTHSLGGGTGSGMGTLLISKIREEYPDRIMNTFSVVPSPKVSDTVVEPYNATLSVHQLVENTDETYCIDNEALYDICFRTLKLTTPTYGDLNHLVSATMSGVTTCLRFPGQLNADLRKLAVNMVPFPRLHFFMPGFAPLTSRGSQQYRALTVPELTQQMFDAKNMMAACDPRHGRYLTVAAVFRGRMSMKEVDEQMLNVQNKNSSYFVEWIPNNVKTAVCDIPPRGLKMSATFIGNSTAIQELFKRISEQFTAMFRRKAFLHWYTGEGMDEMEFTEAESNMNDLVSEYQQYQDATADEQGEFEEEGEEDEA
SMILES,"IC50 (HCC1954 cells; Homo sapiens, HCC1954, 144 h) [nM]",IC50 (KIF18A) [nM],"IC50 (HCC1395 cells; Homo sapiens, HCC1395, 144 h) [nM]","IC50 (OVCAR-3 cells; Homo sapiens, OVCAR-3, 240 h) [nM]",IC50 (HCC1954 cells) [nM],IC50 (HCC1395 cells) [nM],IC50 (OVCAR-3 cells) [nM],IC50 (HT-29 cells) [nM],IC50 (HCT116 cells) [nM],IC50 (A2780 cells) [nM]
"O=C(Nc1ccc(F)c2c1ccn2CC1CC1)c1ccc(NS(=O)(=O)CCO)cc1N1CCC2(CC1)CC2 [Example 56, N-(1-(cyclopropylmethyl)-7-fluoro-1H-indol-4-yl)-4-((2-hydroxyethyl)sulfonamido)-2-(6-azaspiro[2.5]octan-6-yl)benzamide]",10 to 500,50 to 500,> 5000,50 to 500,,,,,,
"CC1(C)Cc2nc3c(NC(=O)c4ccc(NS(=O)(=O)CCO)cc4N4CCC5(CC4)CC5)cccc3n2C1 [Example 490, N-(2,2-dimethyl-2,3-dihydro-1H-benzo[d]pyrrolo[1,2-a]imidazol-5-yl)-4-((2-hydroxyethyl)sulfonamido)-2-(6-azaspiro[2.5]oct-6-yl)benzamide]",10 to 500,50 to 500,,50 to 500,,,,,,
"CN1CCn2c(cc3c(NC(=O)c4ccc(NS(=O)(=O)CCO)cc4N4CCC5(CC4)CC5)cccc32)C1 [Example 234, 4-(2-hydroxyethyl)sulfonamido-N-(2-methyl-1,2,3,4-tetrahydropyrazino[1,2-a]indol-9-yl)-2-(6-azaspiro[2.5]octan-6-yl)benzamide]",10 to 500,50 to 500,> 5000,50 to 500,,,,,,
"O=C(Nc1cccc2c1cc1n2CCCC1)c1ccc(NS(=O)(=O)CCO)cc1N1CCC2(CC1)CC2 [Example 126, 4-((2-hydroxyethyl)sulfonamide)-2-(6-azaspiro[2.5]octan-6-yl)-N-(6,7,8,9-tetrahydropyridine[1,2-a]indole-1)benzamide]",,≤ 50,,,10 to 500,> 5000,50 to 500,,,
"O=C(Nc1cccc2c1ccn2CC1CC1)c1ccc(NS(=O)(=O)CCO)cc1N1CCC2(CC1)CC2 [Example 9, N-(1-(cyclopropylmethyl)-1H-indole-4-(2-hydroxyethyl)sulfonamido)-2-(6-azaspiro[2.5]octan-6-yl)benzamide]",,≤ 50,,,10 to 500,> 5000,50 to 500,,,
O=C(Nc1cccc2nn(CC3CC3)cc12)c1ccc(NS(=O)(=O)CCO)cc1N1CCC2(CC1)CC2 [Example 269],,≤ 50,,,10 to 500,> 5000,50 to 500,,,
"O=C(Nc1cccc2c1cc1n2CCC1)c1ccc(NS(=O)(=O)CCO)cc1N1CCC2(CC1)CC2 [Example 129, N-(2,3-dihydro-1H-pyrrolo[1,2-a]indol-8-yl)-4-((2-hydroxyethyl)sulfonamide)-2-(6-azaspiro[2.5]octan-6-yl)benzamide]",,≤ 50,,,≤ 10,> 5000,,,,
"COc1ccc(NC(=O)c2ccc(NS(=O)(=O)CCO)cc2N2CCC3(CC2)CC3)c2cc3n(c12)CCOC3 [Compound 404, 4-((2-hydroxyethyl)sulfonamido)-N-(6-methoxy-3,4-dihydro-1H-[1,4]oxazinyl[4,3-a]indol-9-yl)-2-(6-azaspiro[2.5]oct-6-yl)benzamide]",,,,≤ 50,,,,≤ 200,> 10000,> 10000
O=C(Nc1cc(F)cc2c1ccn2CC1CC1)c1ccc(NS(=O)(=O)CCO)cc1N1CCC2(CC1)CC2 [Example 50],,50 to 500,,,10 to 500,> 5000,50 to 500,,,
"CC1OCCn2c1cc1c(NC(=O)c3ccc(NS(=O)(=O)CCO)cc3N3CCC(=C(F)F)CC3)cccc12 (centres unmarked) [Example 320, 2-(4-(difluoromethylene)piperidin-1-yl)-4-((2-hydroxyethyl)sulfonamido)-N-(1-methyl-3,4-dihydro-1H-[1,4]oxazino[4,3-a]indol-9-yl)benzamide]",10 to 500,50 to 500,> 5000,≤ 50,,,,,,
Nc1cc(NS(=O)(=O)CCO)cc(N2CCC3(CC2)CC3)c1C(=O)Nc1cccc2c1ccn2CC1CC1 [Example 41],,50 to 500,,,10 to 500,,50 to 500,,,
